Measured values from BindingDB's records for PubMed 11196150 (Janssen Research Foundation, 2001).
Several values for one entry are separate records, joined by “and”; a condition that tells them apart may be missing. Identical values can stand only once.

Biological target: Protein farnesyltransferase subunit beta/geranylgeranyltransferase type-1 subunit alpha (Homo sapiens, UniProt P49354+P49356)
Assay: FTase Scintillation Proximity Assay
Conditions: pH 7.5; 22 °C
Experimental: Compounds were tested as inhibitors of FTase in vitro using purified human enzyme to catalyze the reaction between [3H] FPP and a biotinylated peptide substrate. Reaction was terminated by addition of streptavidin scintillation proximity assay beads (Amersham), and the mixtures were subsequently analyzed by scintillation counting.

## Cn1cncc1[C@@](N)(c1ccc(Cl)cc1)c1ccc2c(c1)c(-c1cccc(Cl)c1)cc(=O)n2C (racemic) [Racemic mixture]
  IC50: 7.9 nM and 0.86 nM
